Like-named read-outs stand apart in the source and are kept apart here.
Key:
brain cancer cell lines = experiment: Cell based assay, cell viability (CellTiter-Glo), brain cancer cell lines; settings: Homo sapiens
[1] = test system: lung cancer cell lines (e.g. NCI-H23, NCI-H1229); experiment: Cell based assay, cell viability (CellTiter-Glo), lung cancer cell lines; settings: Homo sapiens
Method in brief: (§1)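 Cell lines seeded, cultured 24 hours, then exposed to compound at final 0 to 2 μM. After a further 72 hours, viability measured by ATP-detection luminescence (CellTiter-Glo).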

renal cancer cell lines = experiment: Cell based assay, cell viability (CellTiter-Glo), renal cancer cell lines; settings: Homo sapiens; ACHN cells
Method in brief: as §1

[2] = U138-MG, U-138 MG cell line, read-out: IC50, Brain cancer cell line U-138 MG
[3] = T98G cell line, read-out: IC50, Brain cancer cell line T98G
[4] = U-251 MG cell line, read-out: IC50, Brain cancer cell line U-251 MG
[5] = A549 cells, 72 hours treatment, CellTiter-Glo, read-out: IC50, lung cancer cell line A549
[6] = DMS 114 cells, 72 hours treatment, CellTiter-Glo, read-out: IC50, lung cancer cell line DMS 114
[7] = MRC-5 cells, 72 hours treatment, CellTiter-Glo, read-out: IC50
[8] = NCI-H23 cells, 72 hours treatment, CellTiter-Glo, read-out: IC50, lung cancer cell line NCI-H23
[9] = NCI-H460 cells, 72 hours treatment, CellTiter-Glo, read-out: IC50, lung cancer cell line NCI-H460
[10] = NCI-H522 cells, 72 hours treatment, CellTiter-Glo, read-out: IC50, lung cancer cell line NCI-H522
[11] = NCI-H1299 cells, 72 hours treatment, CellTiter-Glo, read-out: IC50, lung cancer cell line NCI-H1299
[12] = NCI-H1437 cells, 72 hours treatment, CellTiter-Glo, read-out: IC50, lung cancer cell line NCI-H1437
[13] = Lung cancer cell line A549, 72 hours, cell viability (CellTiter-Glo), read-out: IC50, A549
[14] = Lung cancer cell line DMS 114, 72 hours, cell viability (CellTiter-Glo), read-out: IC50, DMS 114
[15] = Lung cancer cell line NCI-H23, 72 hours, cell viability (CellTiter-Glo), read-out: IC50, NCI-H23
[16] = Lung cancer cell line NCI-H460, 72 hours, cell viability (CellTiter-Glo), read-out: IC50, NCI-H460
[17] = Lung cancer cell line NCI-H522, 72 hours, cell viability (CellTiter-Glo), read-out: IC50, NCI-H522
[18] = Lung cancer cell line NCI-H1299, 72 hours, cell viability (CellTiter-Glo), read-out: IC50, NCI-H1299
[19] = Lung cancer cell line NCI-H1437, 72 hours, cell viability (CellTiter-Glo), read-out: IC50, NCI-H1437
[20] = MRC-5 (listed under Lung cancer cell line), 72 hours, cell viability (CellTiter-Glo), read-out: IC50, MRC-5

Structure (SMILES) | IC50 (brain cancer cell lines; [2]) [µM] | IC50 (brain cancer cell lines; [3]) [µM] | IC50 (brain cancer cell lines; [4]) [µM] | IC50 [1, 5] [µM] | IC50 [1, 6] [µM] | IC50 [1, 7] [µM] | IC50 [1, 8] [µM] | IC50 [1, 9] [µM] | IC50 [1, 10] [µM] | IC50 [1, 11] [µM] | IC50 [1, 12] [µM] | IC50 (renal cancer cell lines) [µM] | IC50 [1, 13] [µM] | IC50 [1, 14] [µM] | IC50 [1, 15] [µM] | IC50 [1, 16] [µM] | IC50 [1, 17] [µM] | IC50 [1, 18] [µM] | IC50 [1, 19] [µM] | IC50 [1, 20] [µM]
COC(=O)c1ccc(C[S+]([O-])c2[nH]c3c(Cl)ccc(Cl)c3c(=O)c2C(C)=O)cc1 (stereo not drawn) [Compound 91, methyl 4-(((3-acetyl-5,8-dichloro-4-oxo-1,4-dihydroquinolin-2-yl)sulfinyl)methyl)benzoate] | > 2 | > 10 | > 2 | > 2 | > 2 | > 2 | 1.8 | > 2 | > 2 | > 2 | > 10 | > 2 | – | – | – | – | – | – | – | –
CSc1c(C(C)=O)c(=O)c2c(Cl)ccc(Br)c2n1S(=O)(=O)c1ccc(Cl)cc1 [Compound 37, 3-acetyl-8-bromo-5-chloro-1-((4-chlorophenyl)sulfonyl)-2-(methylthio)quinolin-4(1H)-one] | > 10 | > 10 | > 2 | > 2 | > 2 | > 2 | > 2 | > 2 | > 2 | > 2 | > 10 | > 2 | – | – | – | – | – | – | – | –
CC(=O)c1c([S+]([O-])Cc2ccc(C(F)(F)F)nc2C)[nH]c2c(Br)ccc(Cl)c2c1=O (stereo not drawn) [Compound 102, 3-acetyl-8-bromo-5-chloro-2-(((2-methyl-6-(trifluoromethyl)pyridin-3-yl)methyl)sulfinyl)quinolin-4(1H)-one] | 1.24 | > 10 | > 2 | – | – | – | – | – | – | – | – | 1.63 | 1.64 | > 2 | 1.26 | 1.44 | 1.49 | 1.11 | > 10 | 1.43
CC(=O)c1c([S+]([O-])Cc2ccc(C#N)s2)[nH]c2c(Br)ccc(Cl)c2c1=O (stereo not drawn) [Compound 98, 5-(((3-acetyl-8-bromo-5-chloro-4-oxo-1,4-dihydroquinolin-2-yl)sulfinyl)methyl)thiophene-2-carbonitrile] | > 2 | > 10 | 1.25 | > 2 | > 2 | > 2 | 1.64 | 1.68 | > 2 | 1.81 | > 10 | 1.81 | – | – | – | – | – | – | – | –
CSc1[nH]c2c(Br)ccc(Cl)c2c(=O)c1C(C)=O [Compound 2, 3-acetyl-8-bromo-5-chloro-2-(methylthio)quinolin-4(1H)-one] | > 10 | > 10 | > 2 | > 2 | > 2 | > 2 | > 2 | > 2 | > 2 | > 2 | > 10 | > 2 | – | – | – | – | – | – | – | –
CC(=O)c1c([S+]([O-])Cc2cccc(I)c2)[nH]c2c(Br)ccc(Cl)c2c1=O (stereo not drawn) [Compound 48, 3-acetyl-8-bromo-5-chloro-2-((3-iodobenzyl)sulfinyl)quinolin-4(1H)-one] | > 2 | > 10 | > 2 | > 2 | > 2 | > 2 | 1.51 | > 2 | > 2 | > 2 | > 10 | > 2 | – | – | – | – | – | – | – | –
CC(=O)c1c([S+](C)[O-])[nH]c2c(Cl)ccc(Cl)c2c1=O (stereo not drawn) [Compound 6, 3-acetyl-5,8-dichloro-2-(methylsulfinyl)quinolin-4(1H)-one] | > 2 | > 10 | > 2 | > 2 | > 2 | > 2 | 1.31 | > 2 | > 2 | 1.84 | > 10 | > 2 | – | – | – | – | – | – | – | –
CC(=O)c1c([S+]([O-])Cc2ccc(-n3cccn3)nc2)[nH]c2c(Br)ccc(Cl)c2c1=O (stereo not drawn) [Compound 99, 2-(((6-(1H-pyrazol-1-yl)pyridin-3-yl)methyl)sulfinyl)-3-acetyl-8-bromo-5-chloroquinolin-4(1H)-one] | 1.16 | > 10 | 0.79 | – | – | – | – | – | – | – | – | 1.21 | 1.29 | > 2 | 0.92 | 1.18 | 1.13 | 1.06 | > 10 | 1.13

— US11464770B2, “Anticancer pharmaceutical composition” (NATIONAL CANCER CENTER, priority 2016, dated 2022)
